The source of these data is patent publication US4351829A, “Use of polypeptides as analgesic drugs” (Farmitalia Carlo Erba Spa, priority 1980, dated 1982).

The conditions of series [1]: cancer patients; intravenous bolus 1 nanogram/kg.
Source text: The average dosages for Cerulitide were from 0.5 nanograms/kg body weight (i.v.) to 300 nonograms/kg body weight (intramusculary), depending upon the treated pains, as set forth in the following examples.

Where two headings read alike, the source gives them in different places. Square brackets hold non-standard residues; d marks the D form. Peptide text beside a SMILES is read from it. sY = N[C@@H](Cc1ccc(OS(=O)(=O)O)cc1)C(=O)O; pGlu = O=C1CC[C@@H](C(=O)O)N1

With `CSCC[C@H](NC(=O)[C@H](Cc1c[nH]c2ccccc12)NC(=O)CNC(=O)[C@@H](NC(=O)[C@H](Cc1ccc(OS(=O)(=O)O)cc1)NC(=O)[C@H](CC(=O)O)NC(=O)[C@H](CCC(N)=O)NC(=O)[C@@H]1CCC(=O)N1)[C@@H](C)O)C(=O)N[C@@H](CC(=O)O)C(=O)N[C@@H](Cc1ccccc1)C(N)=O` [Ceruletide] ([pGlu]QD[sY]TGWMDF-NH2), the Side-effects result in series [1] is given as “None”; the Side-effects result (intramuscular 0.05 micrograms/kg, first injection) is “None”; the Side-effects entry (intramuscular 0.1 micrograms/kg) is “None and Burning sensation at the injection site and pain sensation at the injection site”; the Side-effects result (second intramuscular injection 0.05 micrograms/kg) is given as “None”.
